Laboratory results reported in patent US20030082135A1, “Pathway of RANTES-mediated chemokine synthesis in astrocytes and methods of use therefor” (priority 2001, published 2003).

Columns and labels:
[1] = tested on: primary neonatal mouse astrocyte cultures; experiment: RNase protection assay (RPA) for chemokine/cytokine transcripts in astrocyte cultures; format: cell-based
Method: Astrocyte isolation and culture. […] RNA isolation and RNase protection assay (RPA). […] RNase protection assays (RPA) for chemokine message were conducted with multi-probe templates according to the manufacture's protocol (RiboQuant assay kit, BD-PharMingen, San Diego, Calif.). Gels were scanned and radioactive bands quantitated using a phosphoimager (Molecular Dynamics, Sunnyvale, Calif.). Levels of uniformly expressed housekeeping genes large ribosomal subunit protein 32-3A (L32) or glyceraldehyde-3-phosphate dehydrogenase (GAPDH), were used for normalization. The value of each chemokine receptor band divided by the value of the indicated housekeeping gene band in the same sample yielded the relative intensity. Normalized receptor expression represents the ratio of the relative intensity following treatment with chemokine versus the relative intensity of medium alone. Treatment with pharmacological inhibitors. Astrocytes were washed and resuspended in serum-and insulin-free complete medium and starved overnight. Cells were treated at 37° C. for 1 h with 100 ng/ml Pertussis toxin (PTx) before addition of RANTES or IL-1. […] The cells were harvested after a 3 h incubation with RANTES; RNA was prepared and assayed by RPA.

[2] = tested on: astrocytes; experiment: ELISA of KC, TNF-α and MCP-1 protein in astrocyte culture supernatants; format: cell-based, mouse
Method: ELISA. For production of supernatants, 2×10^4 astrocytes were cultured in 96 well plates with medium or 100 ng/ml RANTES. Supernatants were collected after the indicated times. ELISA assays for KC and MCP-1 were performed as in Luo, Y., et al. 1999. J Immunol 163:3985, and for TNF-α as in Abromson-Leeman, et al. 2001. Eur J Immunol 31:527. Protein levels were determined using recombinant KC, MCP-1, or TNF-α (R & D Systems, Minneapolis, Minn.) as standards.

[3] = tested on: Raf-1; experiment: Raf-1 kinase activity in lysates of treated astrocytes (phosphorylation of MEK); format: cell-based, mouse; settings: 100 ng/ml RANTES
Method: FIG. 12 is a set of bar graphs and a photograph of a Western blot showing that RANTES activated Raf-1 kinase activity in astrocytes. Panel A. Astrocytes were stimulated with 100 ng/ml RANTES for the indicated times and cell lysates were prepared for analysis of Raf-1 activity. Values are presented as relative Raf-1 kinase activity (percent) and represent the mean±S.E.M. of triplicate experiments. Panel B. Astrocytes were stimulated with 100 ng/ml RANTES for the indicated times and cell lysates were prepared for analysis by Western blotting. Blots were stained with anti phospho-Raf (Ser 259) Ab or control anti-Raf Ab. Panel C. […] Astrocytes were pretreated with the indicated doses of Raf-1 inhibitor for 1 h and then stimulated with 100 ng/ml RANTES for 3 h. Total RNA was prepared and assayed by RPA for expression of message for the indicated proinflammatory mediators and the housekeeping genes L32 and GAPDH. Representative data from one of three similar experiments are presented. […]
It is herein shown that RANTES induced Raf-1 kinase activity in 1 to 5 min; Raf-1 kinase activity peaked after 5-10 min (FIG. 12A). […] Increased Raf-1 enzyme activity was accompanied by dephosphorylation of Ser 259, an inhibitory phosphate site detected by a specific anti-Raf (Ser 259) antibody (FIG. 12B).

[4] = tested on: mouse thymocytes; experiment: RPA for chemokine/cytokine transcripts in thymocytes; format: cell-based; settings: 100 ng/ml, 6 h
Method: To evaluate the cellular specificity of chemokine induction by RANTES-related chemokines, mouse thymocytes were treated with 2.5 μg/ml ConA, 100 ng/ml RANTES, or TCA4. After 6 h the cells were harvested for RNA extraction. […] Thus, the ability of RANTES-related chemokines to up-regulate chemokine/cytokine synthesis is not a generalized phenomenon in all cell types, but is specific for CNS cells such as astrocytes.

[5] = tested on: phosphorylated RSK in astrocytes; experiment: Immunofluorescence of phospho-p90RSK translocation; format: cell-based, mouse; settings: 100 ng/ml RANTES, 5 or 20 min
Method: Immunofluorescence. Astrocytes were grown on glass coverslips for a day; the cells were then serum-starved for three hours. Astrocytes were treated with RANTES for 5 or 20 minutes. Following treatment, cells were fixed in −20° C. methanol, permeabilized in ice-cold 0.2% Triton X-100 in PBS and incubated with phospho-p90RSK (Thr360/Ser364) antibody overnight at 4° C., followed by incubation with Alexa Fluor 555 goat anti-rabbit IgG (Molecular Probes, Eugene, Oreg.). Nuclei were stained with Hoechst 33258 (1:2000) for 5 min; coverslips were mounted on slides using the ProLong Antifade Kit (Molecular Probes, Eugene, Oreg.). Slides were stored at room temperature in the dark until observation.
The ability of RANTES to induce nuclear translocation of RSK was examined.

Q: For RANTES, which “production of chemokine transcripts by astrocytes from mice deficient for CCR1, CCR2, CCR3, or CCR5” value ([1]; 100 ng/ml) is on record?
A: specifically responded

Q: And the “expression of TNF-α, RANTES, KC, MIP-1α, MIP-2, and MCP-1 transcripts” value ([1]; BALB/cJ neonatal astrocytes, chemokine for 6 h)?
A: up-regulated

Q: And the “duration of RANTES transcription” value ([1]; RANTES-induced)?
A: greater than 24 h

Q: And the “time after which TNF-α mRNA disappeared” value ([1]; RANTES-induced)?
A: 18 h

Q: And the “time at which TNF-α mRNA was detected” value ([1]; RANTES-induced)?
A: 1.5 h

Q: And the “time at which bands for RANTES and MIP-1α were visible” value ([1]; RANTES-induced)?
A: 3 h

Q: And the “time by which MIP-1α mRNA was down regulated” value ([1]; RANTES-induced)?
A: ≤ 24 h

Q: And the “time of transient production of IL-6 transcripts” value ([1]; RANTES-induced)?
A: 6 to 24 h

Q: And the “transcripts for the chemokine TCA3” value ([1]; RANTES-induced, any time point)?
A: not detected

Q: What about the “time at which RANTES and IL-6 transcripts appear” value ([1]; after RANTES stimulation) of the same substance?
A: 4 to 8 h

Q: What about the “time at which TNF-α, KC, and MIP-2 transcripts were detected” value ([1]; after RANTES stimulation) of the same substance?
A: 60 to 90 min

Q: What about the “time at which bands for MIP-1α and MCP-1 became visible” value ([1]; after RANTES stimulation) of the same substance?
A: 2 h

Q: What about the “expression of TNF-α, RANTES, KC, IL-6, MIP-1α, MIP-2, and MCP-1 transcripts” value ([1]; astrocytes treated with RANTES, time course) of the same substance?
A: up-regulated

Q: And the “ability to induce chemokine transcripts after boiling” value ([1]; boiled for 30 min before incubation with astrocytes)?
A: completely destroyed

Q: And the “concentration yielding optimal stimulation of transcripts” value ([1]; preliminary experiments)?
A: 100 ng/mL

Q: And the “time at which KC protein reached a plateau” value ([2]; 100 ng/ml RANTES)?
A: 1 days

Q: And the “time at which KC protein synthesis was detectable” value ([2]; 100 ng/ml RANTES)?
A: ≤ 8 h

Q: What about the “time at which KC protein was detected” value ([2]; 100 ng/ml RANTES) of the same substance?
A: 12 h

Q: And the “KC protein concentration in supernatant” value ([2]; 100 ng/ml RANTES, after 16 h)?
A: 20 to 30 ng/mL

Q: What about the “TNF-α protein level in supernatant” value ([2]; 100 ng/ml RANTES, after 16 h) of the same substance?
A: less than 120 pg/ml

Q: And the “TNF-α protein in culture supernatants” value ([2]; 6 h after RANTES stimulation)?
A: not detectable

Q: What about the “TNF-α protein in culture supernatants” value ([2]; 12 h after RANTES stimulation) of the same substance?
A: greater than 100 pg/ml

Q: And the “time of peak TNF-α protein levels” value ([2]; RANTES stimulation)?
A: 24 h

Q: And the “time of peak Raf-1 kinase activity” value [3]?
A: 5 to 10 min

Q: And the “RANTES and TNF-α RNA levels in thymocytes” value [4]?
A: not to ber further enhanced

Q: And the “nuclear translocation of phosphorylated RSK” value [5]?
A: nuclear translocation was noted at 5 min
